Tests used:
[1] = tested on: subjects with steatosis and F1-F3 fibrosis / NASH; details: one subject on Compound 1 20 mg given 145 mg fenofibrate after grade 3 hypertriglyceridemia at week 1
Method: Ten subjects with steatosis (MRI-PDFF≥10%) and F1-F3 fibrosis (MRE≥2.88 kPa but non-cirrhotic based on FibroText <0.75, historical imaging and liver biopsy) were treated 20 mg Compound 1 for 12 weeks.
Four of the ten subjects were on fish oil or fenofibrate at baseline and continued the concomitant medication for the duration of the study. Throughout the study subjects were monitored for safety (adverse events, laboratory abnormalities), liver biochemistry, serum markers of fibrosis (ELF and its components TIMP-1, hyaluronic acid, PIII-NP) and cell death (CK18 M30 and M65), liver stiffness (MRE) and fat (MRI-PDFF) and the effect on de novo lipogensis was assessed using heavy water labeling.
The four subjects were analyzed in conjunction with eight subjects from the study described in Example 1. These twelve subjects were on fish oil or fibrates for at least six weeks of the study and included those who were on fish oil or fibrates at baseline or who had graded hypertriglyceridemia and were given fish oil or fibrates during the study.

[2] = tested on: fast food diet (FFD) male C57BL/6 mouse; test: 15-day once daily oral Compound 2 and fenofibrate, fast food diet model of fatty liver; assay type: in vivo; details: 15 days
Method: Once Daily Oral Administration of Compound 2 and Fenofibrate: 15-Day Pharmacology Study Using the Fast Food Diet Model of Fatty Liver in the Male C57BL/6 Mouse
(§1) Purpose: The purpose of this study was to assess the effect of Compound 2 on plasma and liver triglycerides (TG) and molecular biology of liver after 15 days of oral administration (“PO”) of Compound 2 (5 mg/kg QD), fenofibrate (25 mg/kg and 50 mg/kg QD), or the combination (Compound 2 (5 mg/kg, QD)+fenofibrate (50 mg/kg, QD)) in mice fed a diet high in fat, cholesterol, and fructose (the fast-food diet, FFD (Research Diet D12079B)). Mice enrolled in this study were fed a FFD for approximately 9 months prior to study start. Primary endpoints were plasma TG, liver TG, liver ketone bodies, plasma liver enzymes, hepatic oxidative stress and hepatic gene expression of liver X receptorα (LXRα) and PPARα targets, and profibrotic markers by qPCR.

[3] = tested on: pro-fibrotic genes colla1 and timp1; test: Hepatic mRNA expression by qPCR, 15-day FFD mouse study; assay type: in vivo; details: Compound 2 5 mg/kg; fenofibrate 50 mg/kg; QD PO, 15 days
Method: as §1

[4] = tested on: fast food diet (FFD) male C57B1/6 mouse; test: 14-day pharmacology study of Compound 2 and fenofibrate in chow, fast food diet model of fatty liver; assay type: in vivo; details: Compound 2 10 mg/kg QD PO, two weeks of dosing
Method: Once Daily Compound 2 and Fenofibrate Administered in Chow: 14-Day Pharmacology Study Using the Fast Food Diet Model of Fatty Liver in the Male C57B1/6 Mouse
Purpose: The purpose of this study was to assess the effect of Compound 2 on plasma and liver TG and molecular biology of liver after 10 to 14 days of Compound 2 administered orally (10 mg/kg QD), or fenofibrate (0.1% administration in chow), or the combination in a mice fed a diet high in fat, cholesterol, and fructose (the fast-food diet, FFD). Mice enrolled in this study were fed a fast food diet for approximately 9 months prior to study start. Primary endpoints were plasma triglycerides, liver triglycerides, liver cholesterol, and hepatic gene expression of liver X receptorα (LXRα), and sterol response element binding protein-1c (SREBP1c) target genes by qPCR.

Structure (SMILES) | All monitored TG related measurements (total TG, APOB48, VLDL-P, APOC3) [1] | Effect on the above-mentioned parameters (plasma TG, PPARα and LXRα target genes, ALT/AST, liver TG, βOHB, malondialdehyde) ([2]; fenofibrate alone, both 25 and 50 mg/kg QD PO) | Hepatic expression of pro-fibrotic genes [3] | Plasma triglycerides, increase relative to vehicle-treated animals [4] | Plasma TG, increase relative to vehicle-treated animals ([2]; Compound 2 5 mg/kg QD PO, 2 h post dose, ad lib fed)
CC(C)OC(=O)C(C)(C)Oc1ccc(C(=O)c2ccc(Cl)cc2)cc1 [fenofibrate, Fenofibrate, reference compound] | improved to less than baseline | modest-to-no effect | reduced |  | 
COc1ccccc1[C@H](Cn1c(=O)n(C(C)(C)C(=O)O)c(=O)c2c(C)c(-c3ncco3)sc21)O[C@H]1CC[C@@H](O)CC1 [Compound 2, 2-[1-[(2R)-2-[(4-hydroxycyclohexyl)oxy]-2-(2-methoxyphenyl)ethyl]-5-methyl-6-(1,3-oxazol-2-yl)-2,4-dioxo-1H,2H,3H,4H-thieno[2,3-d]pyrimidin-3-yl]-2-methylpropanoic acid] |  |  |  | 15% | 29%

— patent publication US11963961B2, “Combination therapy comprising an ACC inhibitor” (Gilead Sciences, Inc., priority 2017, dated 2024)
